Literature values in US8057823B2, “Lipid nanocapsules, preparation process and use as medicine” (Universite d'Angers, priority 2000, dated 2011).

Structure (SMILES)	solubility in water
CC(=O)[C@H]1CC[C@H]2[C@@H]3CCC4=CC(=O)CC[C@]4(C)[C@H]3CC[C@]12C [progesterone]	virtually insoluble
CS(=O)(=O)OCCCCOS(C)(=O)=O [busulfan]	virtually insoluble
